Laboratory results from patent US8614064B2, “Methods of diagnosing atherosclerosis by measuring ApoCI” (The Johns Hopkins University, priority 2003, dated 2013).

How the values were obtained:
[1] = system: human aortic smooth muscles cells (ASMC); test: Fluorescence microscope quantitative assay of apoptotic death (DAPI staining); format: cell-based; conditions: C2-ceramide 10 μmol/L + ApoCI 2.5 μg/mL + GW4869 20 μmol/L, 24 h; control 2.2%
Method: (§1) FIGS. 1A-1C depict the effect of apolipoproteins on apoptosis in human aortic smooth muscles cells (ASMC). ASMC were grown on sterilized glass cover slips and incubated for 24 hours with media alone (control), ApoCIII (negative control, 2.5 μg/mL medium), ApoCI (2.5 μg/mL medium), ApoCI-enriched HDL (1 μg apoA-I/mL medium), or ApoCI-poor HDL (5 μg apoA-I/mL medium) for 24 hours. Cells were then fixed with ethanol-acetic acid (3:1 volume/volume) and washed 3 times with phosphate-buffered saline. The cells were then stained with DAPI reagent, mounted on a glass cover slide, and subjected to fluorescence microscopy. FIG. 1A: The nucleus of normal cells stains blue and the nucleus of apoptotic cells stains is fragmented white. FIG. 1B: 300 to 500 cells in each sample were counted and the percent of apoptotic cells was plotted. Values are mean±SD; **P<0.01, ***P<0.001. FIG. 1C: DNA ladder assay. Confluent cultures of ASMC were incubated with control medium alone, ApoCI (2.5 μg/mL medium), ApoCIII (negative control, 2.5 μg/mL medium), and TNF-α (positive control, 20 ng/mL medium). Genomic DNA was extracted and 10 μg DNA was subjected to agarose gel electrophoresis. The gels were calibrated with commercially available DNA standards. After electrophoresis, the gels were stained with ethidium bromide and then photographed.
FIGS. 2A-2B depict the effect of ApoCI, the N-SMase inhibitor, GW4869, and C-2 ceramide on apoptosis in cultured human ASMC. FIG. 2A: ASMC (1×10^3) were seeded on sterilized glass cover slips and grown in tissue culture medium with 10% fetal calf serum for 48 hours. […] Thirty minutes later, vehicle DMSO, ApoCI (2.5 μg/mL), or C2-ceramide (10 μmol/L) were added to dishes, and the incubation continued for 24 hours. The cells were then fixed with ethanol-acetic acid (3:1 v/v), stained with DAPI reagent, assessed by fluorescent microscopy, and photographed. Top to bottom: control cells; cells incubated with ApoCI± the N-SMase inhibitor, GW4869; and cells incubated with ApoCI GW4869, and C2-ceramide. FIG. 2B: The DAPI-stained ASMC from the four experimental conditions described was analyzed for quantitative apoptosis. Mean (SD) from 4 experiments. *P<0.05.
Human AoSMC that were negative for mycoplasma, hepatitis B and C and HIV-1 were purchased from Clonetics (San Diego, Calif.) and cultured in Dulbecco's minimal essential medium (Invitrogen, Carlsbad, Calif.) with 10% fetal bovine serum (Hyclone, Salt Lake City, Utah), 100-units/ml penicillin, 100-μg/ml streptomycin to confluence. The cells were incubated in serum-free medium for 30 min prior to initiating the experiments. Cells were then washed and harvested in PBS, and centrifuged at 1500 rpm for 5 min at 4° C. Protease inhibitors were then added and the pellets stored frozen at −30° C. until use.
1×10^3 cells were grown on sterilized glass cover slips in 6-well trays and treated with ApoCI (2.5 μg/ml medium), ApoCIII (2.5 μg/ml medium), tumor necrosis factor (TNF)-α (30 ng/ml), ApoCI-enriched HDL (1 μg apoA-I/ml medium) and ApoCI-poor HDL (5 μg apoA-I/ml medium). After 24 h incubation, the medium was removed, cells fixed with ethanol:acetic acid […] and stored at 4° C. Next, the fixing solution was removed and cells stored frozen at −30° C. Cover slips were mounted on the microscope slides and stained with DAPI reagent (4,6-diamino-2-phenylindol, dihydrochloride). The stained nuclei were visualized by fluorescence microscopy (Zeiss Axiovert 25). Apoptotic cells were determined after counting—500 cells in a double blind fashion.

[2] = system: human aortic smooth muscles cells (ASMC); test: DNA laddering assay; format: cell-based; conditions: ApoCI or ApoCIII 2.5 μg/mL, TNF-α positive control
Method: as §1
Cells were treated with either TNF-α (30 ng/ml), ApoCI or ApoCIII (2.5 μg/ml) for 6 h. The cells were then washed twice with minimal essential medium and harvested with buffer (10 mM HEPES, pH 7.4. 5 mM EDTA, 0.25 mM EGTA, 50 mM NaF, 5 mM β-mercaptoethanol, 0.35 M sucrose, 0.1% Nonidet and protease inhibitors, 1 mM phenylmethylsulfonyl fluoride, 2 μg/ml leupeptin and 5 μg/ml pepstatin), and pelleted. Genomic DNA was prepared employing standard protocol. Genomic DNA was subjected to electrophoresis, stained with ethidium bromide and the gel was photographed. The gel was calibrated using DNA fragments of known molecular weight.

N-SMase = test: Neutral sphingomyelinase assay in treated ASMC ([14C]sphingomyelin substrate); format: cell-based, human; conditions: 5 min; ApoCI 2.5 μg/mL, TNF-α 20 ng/mL, ApoCI-enriched HDL 1 μg apoA-I/mL; control 22 nmol/h per mg protein = 100%
Method: FIGS. 3A-3C depict the effects of ApoCI, ApoCIII, TNF-α, ApoCI-enriched HDL, and ApoCI-poor HDL on the activity of N-SMase in ASMC. Confluent cultures of ASMC were preincubated for 30 minutes with serum-free (control) medium, then ApoCI (2.5 μg/mL medium), ApoCIII (2.5 μg/mL medium), TNF-α (20 ng/mL medium) (FIG. 3A, top), or ApoCI-enriched HDL (1 μg apoAI/mL medium), or ApoCI-poor HDL (5 μg apoA-I/mL medium) (FIG. 3B, middle) were added individually to cells. The cells were then incubated and harvested at the indicated time points, and the activity was of N-SMase determined using [^14C]sphingomyelin as substrate. The N-SMase activity in control cells was 22 nmol/h per milligram cell protein, and this value was considered as 100% activity. In a separate experiment (FIG. 3C bottom), cells (0.5×10^5) were seeded in P60 Petri dishes and grown in DMEM supplemented with 10% fetal bovine serum for 5 days. After preincubation of cells for 30 minutes in serum-free medium, increasing amounts of ApoCI were added. After incubation for 10 minutes, cells were harvested, and N-SMase activity was measured.
After stimulation with ApoCI ApoCI-enriched HDL and ApoCI-poor HDL, the cells were washed with 5 ml of PBS and harvested. The pellets were stored frozen at −70° C. and resuspended in 0.5 ml of buffer (100 mM Tris-HCl pH 7.4, 0.1% Triton X-100, 1 mM EDTA and protease inhibitors). The cell suspension was sonicated 3 times (3-s bursts) using a probe sonicator and centrifuged at 500×g at 4° C. for 5 min. The supernatant was used as the enzyme source. 100 μg of protein was assayed for neutral sphingomyelinase activity in a buffer consisting of 50 mM Tris-HCl, pH 7.4, 0.1% Triton X-100, 0.1 mg of bovine serum albumin, 5 mM MgCl2 and […] of [^14C]sphingomyelin (specific activity 50 mCi/mmol, from American Radiolabled Chemicals (St. Louis, Mo.). The samples were incubated at 37° C. for 2 h and terminated with the addition of 1 ml of 10% trichloroacetic acid. The precipitate was pelleted (1000×g at 4° C. for 30 min) and 1 ml of the supernatant was extracted with 1 ml of anhydrous diethyl ether. About 0.5 ml of the aqueous phase was removed for liquid scintillation counting (Ghosh, N., and Chatterjee, S. (1998) J. Biol. Chem. 264, 12554-12561).

| Molecule | percent apoptotic cells with C2-ceramide added to ApoCI and GW4869 [1] | DNA laddering on agarose gel (FIG. 1C) [2] | increase in the activity of N-SMase at 5 minutes (N-SMase) |
| --- | --- | --- | --- |
| CCCCCCCCCCCCC/C=C/[C@@H](O)[C@H](CO)NC(C)=O [C2-ceramide] | ~12.5% | – | – |
| tumor necrosis factor α [TNF-α] | – | exhibited DNA laddering | ~2 fold |
